Source: patent US20140343165A1, “PLANT PROTECTION AGENT” (priority 2010, published 2014)

What was measured:
[1] = system: Erwinia amylovora; assay: Growth inhibition in in vitro suspension cultures (OD600 growth curves); format: cell-based; conditions: for Effect on growth of suspension culture: Example 2
Method: Streptomycin as a conventional agent against Erwinia amylovora was used as a positive control (see FIGS. 1A to 1D).
The specific members of the three different classes of quinones were uniformly pre-dissolved in ethanol to give a 1 mM solution and subsequently diluted to the respective final concentrations in culture medium. Corresponding controls were conducted with equal volumes of ethanol in the absence of agent (FIG. 4, “KE”). Attention was particularly focused on a low concentration rage of less than 100 μM, in which unspecific and weak antibacterial effects are no longer of significance.
In the present experiments, the Austrian Erwinia amylovora standard strain 295/93 (AGES) was employed.
(§1) Erwinia amylovora was inoculated into 5 ml of KB medium and cultivated over night at 28° C. and 200 rpm. This culture was diluted with KB medium to OD600=0.3 and 2 ml thereof were further cultivated in sealed cuvettes in the presence of different agent concentrations immediately afterwards. […] Two controls were conducted: unchanged medium and medium with an ethanol concentration equal to that of the test preparations. The optical densities of the cultures OD600 were measured over time at predetermined intervals.

[2] = system: Erwinia amylovora; assay: In vitro infection tests on apple blossoms; conditions: for Infested blossoms: 14 blossoms
Method: In these tests, streptomycin was used as a positive control.
The in vitro tests on apple blossoms represented the natural course of infection and were conducted as follows: blooming apple blossoms were cut and further cultivated standing in a sterile sugar solution in transparent plastic containers. […] Following another 35 hours of incubation, the blossoms were wet by spraying on water. The infection rate was determined after 8 to 10 days of incubation at 22° C. and 70% relative humidity.

[3] = system: apple blossoms (Smoothy and Idared); assay: Phytotoxicity on apple blossoms and subsequent fruit development; format: in vivo, Malus x domestica; conditions: for Browning reaction on petals: Smoothy and Idared; for Fruit russeting: all tested concentrations
Method: (§2) . In this test, the respective concentrations were employed that had been proven as completely effective (no bacterial growth) in the in vitro suspension cultures. […]. […] The maximum final concentrations of the solvent ethanol in the treatment solutions were 5%; corresponding control treatments were conducted with 0.5 or 5% ethanol in water. For each variant (agent, concentration, variety), two of the larger branches were treated. The test were conducted in the experimental fruit plantation of the University of Agriculture in Jedlersdorf, Austria. The trees of each series were of identical age as well as developmental and observable physiological state. The treatments were conducted in the morning between 8:00 and 9:30 at a relative humidity of 68 to 75% and temperatures of 12 to 13° C. On all days of treatment, the sprayed blossoms were directly exposed to sunlight afterwards. Phytotoxic effects were evaluated on the days following treatment. During the following months, fruit set and development was observed and compared to that of the control plants. In the evaluation, attention was particularly focused on visible alterations of the fruit epidermis.

[4] = system: pear blossoms (Williams Christ); assay: Phytotoxicity on pear blossoms and subsequent fruit development; format: in vivo, Pyrus communis; conditions: for Browning reaction on petals: Williams Christ; for Fruit russeting: all tested concentrations
Method: as §2

[5] = system: Erwinia amylovora; assay: Inoculation tests on pear fruits; format: in vivo
From the text: As opposed to the blossom system, this test has to be performed with lesions of the plant tissue. It is known that any results obtained with this system have a lower reproducibility and are harder to evaluate. The corresponding results are photographically documented in FIG. 3. Two different pear varieties were used.
The development of black necrotic lesions of the plant tissue and the formation of white bacterial slime (exsudate) were taken as criteria for evaluating the degree of infection.
Erwinia amylovora was inoculated into 5 ml KB medium and cultivated over night at 28° C. and 200 rpm. Upon reaching a cell density corresponding to OD600 (1:10 dilution)=0.17 to 0.20, 1 ml of the undiluted culture was centrifuged and the bacterial pellet was resuspended in PBS (phosphate buffered saline). Unripe pear fruits (July) obtained from the experimental plantation (Jedlersdorf, BOKU) were harvested, washed with water, dried and used for inoculation (EPPO protocol 2004). In the inoculation procedure, two holes each having a volume of about 10 μl were pierced into each fruit using a pipette tip. 10 μl of the test solution were pipetted into each of the hollows thus formed, followed by incubation of the fruits for 15 min. Upon absorption of the test solutions by the tissue, each lesion was inoculated with 10 μl of Erwinia amylovora, suspended in PBS. The direct inoculation of fruits that had not been treated with the agent before served as a positive control. In the negative control, sterile water was used instead of the agent solution. A 0.01 mM streptomycin solution was used as a positive control. The inoculated fruits were incubated for 3 to 7 days at 25° C. and 100% relative humidity.

[6] = system: Erwinia amylovora; assay: Bacteriostatic versus bactericidal effect: plating aliquots of suspension cultures onto agent-free solid medium; format: cell-based; conditions: for Colony formation of surviving cells after plating: already after 30 min
Method: This may be determined by means of plating aliquots of the suspension cultures containing the agent onto agent-free solid media. […] A culture blended with a corresponding volume of the solvent for juglone (ethanol) served as a control. […]. […] Aliquots of the suspension culture having an equivalent ethanol concentration were withdrawn and plated to serve as a control. After two days of incubating the plates at 25° C., the respective colony formation was documented.

[7] = system: Erwinia carotovora; assay: Growth inhibition in suspension culture; format: cell-based
Method: Various other species of Erwinia are also important phytopathogens. The bacterium Erwinia carotovora was selected as an example of a further Erwinia species.
as §1

[8] = system: bees; conditions: on contact or by ingestion
[9] = concentration not given, curative

CC1=CC(=O)c2c(O)cccc2C1=O [Plumbagin, 5-hydroxy-2-methyl-1,4-naphthoquinone]
Concentrations proven completely effective (no bacterial growth) in the in vitro suspension cultures ([1]; suspension culture): 0.1 to 0.5 mM | Degree of efficacy (%) ([2]; 0.1 mM, curative): 58% | Infestation (%) ([2]; 0.1 mM, curative): 36% | Infested blossoms ([2]; 0.1 mM, curative): 5 | Degree of efficacy (%) ([2]; 0.5 mM, curative): 50% | Infestation (%) ([2]; 0.5 mM, curative): 43% | Infested blossoms ([2]; 0.5 mM, curative): 6 | Browning reaction on petals ([3]; 0.1 mM): brown spots | Browning reaction on petals ([3]; 0.5 mM, compared with 0.1 mM): more distinct | Fruit russeting [3]: Neither the juglone nor the plumbagin treatments resulted in observable fruit russeting | Browning reaction on petals ([4]; 0.1 mM): brown spots | Browning reaction on petals ([4]; 0.5 mM, compared with 0.1 mM): more distinct | Fruit russeting [4]: Neither the juglone nor the plumbagin treatments resulted in observable fruit russeting

[H]/N=C(/N)N[C@H]1[C@H](O)[C@@H](O)[C@H](O[C@@H]2O[C@@H](C)[C@](O)(C=O)[C@H]2O[C@@H]2O[C@@H](CO)[C@H](O)[C@@H](O)[C@@H]2NC)[C@@H](N/C(N)=N\[H])[C@@H]1O [Streptomycin, streptomycin]
Infested blossoms ([2]; concentration not given, agent applied 2.5 h after Erwinia amylovora (curative)): 3 | Degree of efficacy (%) [2, 9]: 75% | Infestation (%) [2, 9]: 21% | phyotoxic ([2]; in vivo): no | Exsudate formation ([5]; 0.01 mM): no exsudate formation | Necrotic lesions ([5]; 0.01 mM, Williams Christ and Bosc's Bottle Pear, versus inoculation without agent): slightly diminished

O=C1C=CC(=O)c2c(O)cccc21 [Juglone]
Effect on growth of suspension culture ([1]; 5 μM): growth occurs after a prolonged incubation period | Effect on growth of suspension culture ([1]; 10 μM (1.74 mg/1)): completely bactericidal effect | Effect on growth of suspension culture ([1]; 50 μM, 5% ethanol in medium): distinct effect | Concentrations proven completely effective (no bacterial growth) in the in vitro suspension cultures ([1]; suspension culture): 0.005 to 0.05 mM | Activity against Erwinia amylovora (growth inhibition) ([1]; suspension culture, compared with streptomycin): activity corresponding to that of streptomycin in a sub-millimolar concentration range | Colony formation of surviving cells after plating ([6]; 0.01 mM in suspension culture): no colony formation of surviving cells after each prolonged incubation time | Colony formation of surviving cells after plating ([6]; 0.1 mM in suspension culture): no colony formation of surviving cells after each prolonged incubation time | Bactericidal effect ([6]; conclusion of plating tests): strong bactericidal effect | Growth in suspension culture ([7]; 0.1 mM): completely inhibited | Growth in suspension culture ([7]; concentrations lower than 0.1 mM): not by lower concentrations | Degree of efficacy (%) ([2]; 0.005 mM, curative): 58% | Infestation (%) ([2]; 0.005 mM, curative): 36% | Infested blossoms ([2]; 0.005 mM, curative): 5 | Degree of efficacy (%) ([2]; 0.01 mM, curative): 67% | Infestation (%) ([2]; 0.01 mM, curative): 29% | Infested blossoms ([2]; 0.01 mM, curative): 4 | Effect on infection of pear fruits ([5]; 0.1 mM, pre-incubation 15 min before inoculation): effect approximately comparable to that of 0.01 mM streptomycin | Browning reaction on petals ([3]; 0.025 mM): slightly brown spots | Browning reaction on petals ([3]; 0.05 mM): more distinct spots | Fruit russeting [3]: Neither the juglone nor the plumbagin treatments resulted in observable fruit russeting | Browning reaction on petals ([4]; tested 0.005/0.01 mM): No effect | Fruit russeting [4]: Neither the juglone nor the plumbagin treatments resulted in observable fruit russeting | Toxicity to bees [8]: non-toxic to bees on contact or by ingestion

O=C1C=CC(=O)C=C1 [Benzoquinone, 1,4-benzoquinone]
phyotoxic ([2]; 0.01 mM, apple blossoms): no | Degree of efficacy (%) ([2]; 0.01 mM, curative): 33% | Infestation (%) ([2]; 0.01 mM, curative): 57% | Infested blossoms ([2]; 0.01 mM, curative): 8 | phyotoxic ([2]; 0.05 mM, apple blossoms): yes | Degree of efficacy (%) ([2]; 0.05 mM, curative): 42% | Infestation (%) ([2]; 0.05 mM, curative): 50% | Infested blossoms ([2]; 0.05 mM, curative): 7
